Measured values published in patent US9526729B2, “Medicament for treating peripheral neuropathies” (priority 2013, dated 2016).

Tests used:
[1] = target: viral polymerase (Human herpesvirus 1, UniProt P04293); conditions: cited from earlier work
[2] = test system: recurrent erythema multiforme; conditions: continuous acyclovir therapy; double-blind trial in 1995 (Tatnall); cited from earlier work
[3] = target: viral thymidine kinase (Human herpesvirus 1, UniProt P0DTH5); conditions: conversion into acyclo-guanosine monophosphate; cited from earlier work
Chain of viral thymidine kinase (P0DTH5 whole entry): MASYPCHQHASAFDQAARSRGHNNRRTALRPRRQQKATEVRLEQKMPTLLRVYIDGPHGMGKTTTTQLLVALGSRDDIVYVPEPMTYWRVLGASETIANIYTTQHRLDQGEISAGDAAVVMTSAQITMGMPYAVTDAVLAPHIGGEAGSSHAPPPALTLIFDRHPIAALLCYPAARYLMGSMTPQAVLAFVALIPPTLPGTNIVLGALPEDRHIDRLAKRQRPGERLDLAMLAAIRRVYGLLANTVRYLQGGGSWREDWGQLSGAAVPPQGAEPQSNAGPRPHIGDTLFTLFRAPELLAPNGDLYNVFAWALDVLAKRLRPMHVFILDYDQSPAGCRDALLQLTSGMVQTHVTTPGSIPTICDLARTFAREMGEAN

[4] = test system: Herpes simplex virus (HSV); assay: Clinical cases of chilblain induced by HSV infection; format: in vivo, human; conditions: for clinical outcome, red swollen fingers with pain: 2nd case of chilblain
Text: (§1) Step 102: Performing a Quick Tzanck Test (QTT) process. The QTT process can be applied to the tissue samples from the patient's skin so as to reveal some histopathological changes from the QTT sample, i.e. the tissue samples from the patient's skin, by using a microscope. The inspector or the medical staff can observe the histopathological changes to diagnose HSV infection.
(§2) Step 104: Performing an antibody testing or a PCR techniques on the tissue sample from the specific part of the patient. The antibody testing, such as the HSV IgG testing, the cytomegalovirus immunoglobulin G (CMV IgG) testing or the non-specific immunoglobulin E (IgE) testing is adapted to be performed on a peripheral blood, acting as the tissue sample, of the patient. The PCR testing is adapted to be performed on peripheral blood, skin, bone marrow, mucosa, saliva, cerebrospinal fluid, amniotic fluid, brain tissue, tears or skin secretions, acting as the tissue sample, of the patient. The antibody testing or PCR techniques may be referred to the description in the section of “Diagnosis of HSV Infection”. The normal titer for CMV IgG/HSV IgG is less than 2 and the normal titer for non-specific IgE is less than 170 IU/ml. When the tissue sample from peripheral blood of the patient has a titer for CMV IgG/HSV IgG greater than 2, the process of “anti-HSV treatments” in step 106 is then carried out. Otherwise, the step 108 of “other treatments” is carried out. Alternatively, when the result of detecting the tissue sample via the PCR techniques is positive, the process of “anti-HSV treatments” in step 106 is then carried out; when the result of detecting the tissue sample via the PCR techniques is negative, the step 108 of “other treatments” is carried out.
(§3) 1. Adult: Valacyclovir (500 mg) • a. 2 tablets daily (i.e. 1 tablet after breakfast and dinner) for 5-7 days. • b. 3 tablets daily (i.e. every 8 hours) for severe cases in the beginning only.

[5] = test system: Herpes simplex virus (HSV); assay: Clinical cases of diabetic skin complications (psoriasiform plaques induced by HSV infection); format: in vivo, human; conditions: Acyclovir (400 mg) 3 tablets daily for 10 days then 2 tablets daily for 10 days + NBUVB + Gr. I and III topical CS; 7 days afterwards
Text: as §2
1. […]

[6] = test system: Herpes simplex virus (HSV); assay: Clinical cases of QTT-positive HSV-associated dermatitis treated with antiviral agent; format: in vivo, human
Text: Step 100: Checking a potential disease (D) relates to a dermatosis or a non-skin disease. For example, some questions are given for the patient and the skin of the patient is checked by an experienced inspector or a medical staff to determine if a potential disease (D) had by the patent relates to a dermatosis or a non-skin disease. If the potential disease (D) relates to a dermatosis, the inspector or the medical staff will take some tissue samples from an affected part of a patient's skin, as illustrated in step 101, and the test in step 102 for testing the tissue samples from the patient's skin will continue. If the disease (D) relates to a non-skin disease, the inspector or the medical staff takes a tissue sample from a specific part, such as peripheral blood, skin, bone marrow, mucosa, saliva, cerebrospinal fluid, amniotic fluid, brain tissue, tears or skin secretions, of the patient, as illustrated in step 103, based on the method for testing the tissue sample in step 104, and then the test in step 104 for testing the tissue samples from the specific part of the patient will continue.
as §1
Step 106: Treating an anti-HSV treatment of, for example, prescribing an anti-HSV medicine or an anti-HSV cream for the patient. The patient may take the anti-HSV medicine to cure the HSV infection. Alternatively, the patient may apply the anti-HSV cream onto the affected part of the patient's skin.
as §3

[7] = test system: Herpes simplex virus (HSV); assay: Clinical cases of impetigo induced by HSV infection; format: in vivo, human; conditions: for clinical outcome, skin lesions: Acyclovir G. 10 mg/kg 4 times a day for 7 days + anti-allergic agents
Experimental: as §1, with “The” for “Step 102: Performing a Quick Tzanck Test (QTT) process. The”
as §3

[8] = test system: Herpes simplex virus (HSV); assay: Clinical cases of alopecia due to HSV infection; format: in vivo, human
[9] = test system: Herpes simplex virus (HSV); assay: Clinical cases of acne induced by HSV infection; format: in vivo, human; conditions: for clinical outcome, symptoms: 7 days later
Experimental: as §1, §3
Consequently, the treatment in the present invention of acne may comprise a cream or an ointment mixed by an Anti-HSV agent to put on the affected part of the patient, wherein the Anti-HSV agent comprises Valacyclovir or Acyclovir. For example, the ADO ointment used in this invention contains acyclovir, lidocaine and diclofenac.

[10] = test system: Herpes simplex virus (HSV); assay: Clinical cases of pyoderma gangrenosum induced by HSV infection; format: in vivo, human
[11] = CASE 7, with anti-allergic agent and antibiotic ointment, 9 days later

Chain of viral polymerase (P04293 whole entry): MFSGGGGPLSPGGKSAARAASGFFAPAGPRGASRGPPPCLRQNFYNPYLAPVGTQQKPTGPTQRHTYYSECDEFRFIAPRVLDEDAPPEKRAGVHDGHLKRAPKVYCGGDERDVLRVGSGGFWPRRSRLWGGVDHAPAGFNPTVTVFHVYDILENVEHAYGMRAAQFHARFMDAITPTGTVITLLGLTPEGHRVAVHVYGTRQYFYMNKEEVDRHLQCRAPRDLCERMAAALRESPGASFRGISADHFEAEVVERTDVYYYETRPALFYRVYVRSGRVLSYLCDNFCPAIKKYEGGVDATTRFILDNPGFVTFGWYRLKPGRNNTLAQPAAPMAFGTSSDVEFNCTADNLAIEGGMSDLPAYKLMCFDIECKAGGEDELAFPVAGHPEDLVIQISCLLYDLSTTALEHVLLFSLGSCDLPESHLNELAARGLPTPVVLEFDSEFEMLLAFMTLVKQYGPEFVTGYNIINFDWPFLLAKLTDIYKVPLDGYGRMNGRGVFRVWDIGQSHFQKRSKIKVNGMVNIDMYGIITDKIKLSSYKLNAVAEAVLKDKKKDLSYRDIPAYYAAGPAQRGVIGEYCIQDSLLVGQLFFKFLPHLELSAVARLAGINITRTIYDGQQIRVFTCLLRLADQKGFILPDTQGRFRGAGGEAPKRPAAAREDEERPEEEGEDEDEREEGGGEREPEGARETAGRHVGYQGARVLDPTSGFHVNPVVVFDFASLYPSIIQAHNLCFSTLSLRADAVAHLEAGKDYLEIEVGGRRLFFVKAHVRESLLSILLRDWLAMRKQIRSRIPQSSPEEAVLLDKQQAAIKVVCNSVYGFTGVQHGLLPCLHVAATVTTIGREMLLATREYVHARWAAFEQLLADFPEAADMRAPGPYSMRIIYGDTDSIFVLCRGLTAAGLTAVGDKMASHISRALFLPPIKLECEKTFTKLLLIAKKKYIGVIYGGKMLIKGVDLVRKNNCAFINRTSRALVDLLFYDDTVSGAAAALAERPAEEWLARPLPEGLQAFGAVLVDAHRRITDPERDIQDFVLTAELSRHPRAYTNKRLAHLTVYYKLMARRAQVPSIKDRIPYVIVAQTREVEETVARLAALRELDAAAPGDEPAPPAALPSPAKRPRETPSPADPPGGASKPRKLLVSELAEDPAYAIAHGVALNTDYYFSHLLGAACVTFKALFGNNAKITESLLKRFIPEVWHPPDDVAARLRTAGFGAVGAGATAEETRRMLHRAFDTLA

Nc1nc2c(ncn2COCCOP(=O)(O)OP(=O)(O)OP(=O)(O)O)c(=O)[nH]1 [Acyclo-GTP, acyclo-guanosine triphosphate]
greater affinity for viral than cellular polymerase [1]: approximately 100 times

Nc1nc(O)c2ncn(COCCO)c2n1 [Acyclovir, 2-Amino-1,9-dihydro-9-((2-hydroxyethoxy)methyl)-6H-purin-6-one]
suppression of recurrent erythema multiforme [2]: completely suppressed
effectiveness of viral thymidine kinase in phosphorylation versus cellular thymidine kinase [3]: 3000 times
clinical outcome, swelling, pain, erosion ([4]; 1st case of chilblain, Acyclovir 200 mg 3 tablets daily for 7 days, 7 days later): The swelling and pain decreased a lot. The erosion improved
clinical outcome, psoriasiform plaques [5]: Some lesions disappeared and the scaling of the psoriasiform plaques decreased a lot
clinical outcome, vesiculopapules and plaques ([6]; CASE 6, QTT positive, 2 days later): nearly no vesiculopapules and plaques over their trunk and upper extremity
clinical outcome, earlier similar eruptions ([6]; Case 8, 5-7 days of acyclovir granules, 7 and 9 months ago): Completely disappearance of similar eruptions
clinical outcome, skin lesions ([7]; 1st case of impetigo, antibiotics, 9 days later): only some erythema on their mandible and some small red erosions over right cheek
clinical outcome, lesion ([7]; 2nd case of impetigo, Acyclovir G. 10 mg/kg 4 times a day for 7 days + antibiotics ointment, 3 days later): The lesion dried, desquamated and became flat
recurrence ([7]; 4th case of impetigo, about one year): no recurrence till now
clinical outcome, skin lesions ([7]; 5th case of impetigo, Gr. IV topical corticosteroids, antibiotic ointment, 5 days later): some small erosions around their month and some vesiculopapules over the erythematosus eyelids
recurrence ([7]; 5th case of impetigo, about 14 months): no recurrence till now
clinical outcome, vesicopapules and pustules on back ([8]; 1st case of alopecia and acne-like eruption, after the treatment): only a few vesicopapules and pustules on their back
hair regrowth ([8]; 1st case of alopecia, Acyclovir (400 mg) 3 tablets daily for 10 days and 2 tablets daily for 14 days + anti-allergic agent + Gr. III topical CS, 23 days later): Small white hairs appeared especially over central portion

CC(C)C(N)C(=O)OCCOCn1cnc2c(=O)nc(N)[nH]c21 (centres unmarked) [Valacyclovir, 2-[(2-amino-6-oxo-6,9-dihydro-3H-purin-9-yl)methoxy]ethyl-2-amino-3-methylbutanoate]
clinical outcome, pustules and inflammation ([9]; 1st case of acne, Valacyclovir 2 tablets daily for 5 days + Nadifloxacin cream, 5 days later): The number of the pustules and the extent of inflammation decreased
clinical outcome, pustules ([9]; 2nd case of acne, Valacyclovir 2 tablets daily for 5 days + ADO ointment, 8 days later): Nearly no pustules were seen
clinical outcome, inflammation and comedoes ([9]; 3rd case of acne, Valacyclovir 2 tablets daily for 5 days per month + ADO ointment, 23 days later): The severe inflammation on the nose and over the left cheek decreased a lot
clinical outcome, pustules ([9]; 4th case of acne, Valacyclovir 2 tablets daily for 5 days + anti-allergic agent + Gr. IV topical CS, 2 days later): Not only the number but also the size of the pustules decreased a lot
recurrence ([9]; 4th case of acne, after completed medication, about one year): no recurrence till now
clinical outcome, symptoms ([9]; 5th case of acne, Valacyclovir 2 tablets daily for 5 days + antibiotics 2 days + Nadifloxacin cream): Symptoms have significantly improved
clinical outcome, symptoms ([9]; 6th case of acne, Valacyclovir 2 tablets daily for 5 days + Nadifloxacin cream + Gr. IV topical CS): Symptoms have significantly improved
clinical outcome, red swollen fingers with pain ([4]; after 2nd prescriptions: Valacyclovir 1 tablets daily for 14 days + anti-allergic agent + ADO ointment 2 time daily): improved
clinical outcome, red swollen fingers with pain ([4]; after 3rd prescriptions: Valacyclovir 1 tablets daily for 14 days + anti-allergic agent + ADO ointment 2 time daily): nearly cured
clinical outcome, erosions and oozing ([10]; 1st case of pyoderma gangrenosum, Valacyclovir 3 tablets daily for 10 days + anti-allergic agent, antibiotics ointment, Gr. III topical CS, 10 days later): no more erosions and oozing
clinical outcome, vesicles and swelling of forearm ([6]; CASE 5, 2 days after Valacyclovir granule): Most of the vesicles became crusts and the swelling of their forearm improved a lot
clinical outcome, anterior chest [6, 11]: only few vesiculopapules over their anterior chest
clinical outcome, lower abdomen [6, 11]: nearly no punched out erosions over their lower abdomen
recurrence ([6]; Case 9, follow-up after treatment): no recurrence for 2 years
clinical outcome, vesicles ([6]; Case 9, with anti-allergic agent, 3 days after treatment): the roofs of the vesicles detached and became crusted erosions
clinical outcome, skin lesion ([6]; Case 9, with anti-allergic agent, 7 days later): healed completely
clinical outcome, vesicles ([7]; 3rd case of impetigo, Valacyclovir 2 tablets daily + anti-allergic agent, 3 days after the treatment): the vesicles found over their left neck 6 days ago collapsed
clinical outcome, symptoms ([7]; 3rd case of impetigo, Valacyclovir 2 tablets daily for 7 days + anti-allergic agent + antibiotics 2 days, 7 days later): Symptoms have significantly improved
hair regrowth ([8]; 1st case of alopecia, about 7 weeks after they finished Valacyclovir 2 tablets daily for 5 days): New hairs including black hairs increased a lot
clinical outcome, pustule ([8]; 2nd case of alopecia, Valacyclovir 1 tablets daily for 95 days + anti-allergic agent + Acyclovir ointment for 6 weeks, a week later): The pustule disappeared
clinical outcome, atrophic plague ([8]; 2nd case of alopecia, same regimen, 2 weeks later): nearly no change on the atrophic plague
hair regrowth ([8]; 2nd case of alopecia, same regimen, 4 weeks later): hair increased obviously on the right side and posterior aspect
hair regrowth ([8]; 2nd case of alopecia, same regimen, 16 weeks later): New black hairs (circle) were observed and no more alopecia on the right side

C[C@]12C=CC(=O)C=C1CC[C@@H]1[C@@H]2[C@@H](O)C[C@@]2(C)[C@H]1CC[C@]2(O)C(=O)CO [prednisolone]
clinical outcome, symptoms ([10]; 2nd case of pyoderma gangrenosum with ulcerative colitis, oral prednisolone 40 mg tapered + gentamycin ointment + mesalazine, no antiviral, 13 days later): Symptoms have significantly improved
